In article PMC6499206, “Quantification of Volatile Metabolites Derived From Garlic (Allium sativum) in Human Urine” (Frontiers in Nutrition, 2019):

Experiment: Quantification of garlic-derived metabolites in human urine after ingestion of 3 g raw garlic (SIDA, SAFE, HRGC-MS / HRGC-GC-MS)
Type: in vivo
Design: metabolite in urine related to creatinine: unit not given here
Settings: for metabolite concentration in urine, creatinine-normalized / metabolite concentration in urine / time of highest concentration in urine after garlic consumption / highest detected concentration of the sample series: 3 g raw garlic; for highest detected concentration of the sample series: same bulb
Description: Human urine samples were obtained from 18 volunteers (age 22–38 years, mean 27 years; 11 females, 7 males); thereby, one volunteer conducted the whole experimental series twice. At the time of examination, volunteers reported no known illness that might have potentially influenced the metabolism or the excretion of urine. The test persons were instructed to avoid foods that were rich in sulfur-containing substances at the testing day as well as 2 days preceding the testing day, namely garlic, onion, wild garlic, chives, cabbage, and leek, and were only allowed to consume the garlic sample provided in the course of the experiments. Additionally, subjects were asked to keep records of the food (including food supplements) and beverages they consumed during these 3 testing days. Generally, the overall panelists' requirements were in accordance with our previous studies ([5], [16]).
On the sampling day, the outer garlic cloves of a whole garlic bulb were peeled and cut into ~3 mm cubes by using a garlic cutter (Genius GmbH, Limburg/Lahn, Germany). Subsequently these cubes were thoroughly mixed and aliquoted into 3 g portions. Three to four test persons conducted the experiment at the same day. Each test person was asked to ingest a garlic portion of 3 g. In total, eight consecutive urine samples were provided by each test person, comprising one whole urine set. The samples were collected in sterile brown glass bottles, with sampling times as follows: one sample was provided directly prior to garlic consumption. The series of the second to eighth sample was then obtained at about 0.5, 1, 2, 4, 6, 8, and 24 h after garlic consumption, respectively. Between the first urine sample (prior to garlic consumption) and the seventh urine sample (8 h after garlic consumption) test persons only spent urine at the specific time points mentioned before. Another sample was provided at the next morning (24 h after garlic consumption). Between the samples provided 8 and 24 h after garlic consumption no urine was collected. All samples were immediately placed into a −80°C freezer and were kept frozen until further analysis.
The samples of each set were termed according to their sampling time. The following list provides the time intervals that are related to the respective sample name: • - pre: before garlic consumption • - 0.5 h post: 0.4–0.8 h after garlic consumption • - 1 h post: 0.9–1.3 h after garlic consumption • - 2 h post: 1.8 h−2.2 h after garlic consumption • - 4 h post: 3.8–4.4 h after garlic consumption • - 6 h post: 5.8–6.4 h after garlic consumption • - 8 h post: 7.8–8.4 h after garlic consumption • - 24 h post: 23.8–25.6 h after garlic consumption
A creatinine kit (Labor+Technik Eberhard Lehmann GmbH, Berlin, Germany) was used to determine the creatinine content in each urine sample. The determination principle of this kit is based on the reaction of creatinine with picric acid under basic conditions (Jaffé reaction). The formed complex was detected photometrically at a wavelength of 492 nm.
For quantification purposes, the deuterated standards ^2H3-AMS, ^2H3-AMSO, and ^2H3-AMSO2 were added to the sample and stirred for 10 min. Subsequently, DCM was added in a ratio of 1:2 (DCM/human urine; v/v) and this solution was stirred for further 30 min at room temperature. To isolate the volatile fraction from the urine samples we then applied SAFE-distillation ([17]), thereby distilling the respective samples at 50°C. After completion of the distillation process, 10 mL of DCM were applied in each case to rinse the SAFE apparatus and to ensure complete transition of the volatile compounds. This process was repeated with another 10 mL of DCM. After thawing, the obtained aqueous distillate phase was extracted three times with 25 mL DCM. The organic phases were combined, dried over anhydrous Na2SO4 and concentrated to a total volume of 100 μL by means of Vigreux distillation and subsequent micro-distillation at 50°C. […]

In the case of `C=CCSC` [AMS, allyl methyl sulfide], the “metabolite concentration in urine, creatinine-normalized” value (U XII, 2 h post (1.85 h)) is reported as 1.3 µg/mmol creatinine, the “metabolite concentration in urine” value (U XII, 4 h post (3.80 h)) is reported as 0.5 µg/kg and the “metabolite concentration in urine, creatinine-normalized” value (U XII, 4 h post (3.80 h)) is reported as 0.2 µg/mmol creatinine. The “metabolite concentration in urine” value (U XII, 6 h post (5.82 h)) was 0.4 µg/kg, the “metabolite concentration in urine, creatinine-normalized” value (U XII, 6 h post (5.82 h)) was 0.1 µg/mmol creatinine and the “metabolite concentration in urine” value (U XII, 8 h post (7.82 h)) was 0.3 µg/kg. The “metabolite concentration in urine, creatinine-normalized” value (U XII, 8 h post (7.82 h)) was 0.1 µg/mmol creatinine, the “metabolite concentration in urine” value (U XII, 24 h post (23.92 h)) was “traces^1” and the “metabolite concentration in urine, creatinine-normalized” value (U XII, 24 h post (23.92 h)) was “traces^1”. The “metabolite concentration in urine” value (U XII, pre (-0.08 h)) was “traces^1”, the “metabolite concentration in urine, creatinine-normalized” value (U XII, pre (-0.08 h)) was “traces^1” and the “metabolite concentration in urine” value (U XIII, 0.5 h post (0.42 h)) was 0.2 µg/kg. For the same molecule, the “metabolite concentration in urine, creatinine-normalized” value (U XIII, 0.5 h post (0.42 h)) was 0.1 µg/mmol creatinine, the “metabolite concentration in urine” value (U XIII, 1 h post (0.92 h)) was 0.9 µg/kg and the “metabolite concentration in urine, creatinine-normalized” value (U XIII, 1 h post (0.92 h)) was 0.3 µg/mmol creatinine. For the same molecule, the “metabolite concentration in urine” value (U XIII, 2 h post (1.92 h)) was 1.0 µg/kg, the “metabolite concentration in urine, creatinine-normalized” value (U XIII, 2 h post (1.92 h)) was 0.3 µg/mmol creatinine and the “metabolite concentration in urine” value (U XIII, 4 h post (3.92 h)) was 0.8 µg/kg. The “metabolite concentration in urine, creatinine-normalized” value (U XIII, 4 h post (3.92 h)) was 0.2 µg/mmol creatinine, the “metabolite concentration in urine” value (U XIII, 6 h post (5.92 h)) was 0.4 µg/kg and the “metabolite concentration in urine, creatinine-normalized” value (U XIII, 6 h post (5.92 h)) was 0.04 µg/mmol creatinine. The “metabolite concentration in urine” value (U XIII, 8 h post (7.92 h)) was 0.3 µg/kg, the “metabolite concentration in urine, creatinine-normalized” value (U XIII, 8 h post (7.92 h)) was 0.03 µg/mmol creatinine and the “metabolite concentration in urine” value (U XIII, 24 h post (23.92 h)) was “traces^1”. For the same molecule, the “metabolite concentration in urine, creatinine-normalized” value (U XIII, 24 h post (23.92 h)) was “traces^1”, the “metabolite concentration in urine” value (U XIII, pre (-0.08 h)) was “< LOD^1” and the “metabolite concentration in urine, creatinine-normalized” value (U XIII, pre (-0.08 h)) was “< LOD^1”. For the same molecule, the “amounts detected in samples collected prior to garlic intervention” value (Urine III, VII, VIII, XI, XII, XVI, XVII, pre-ingestion samples) was at most 0.2 μg/mmol creatinine, the “time of highest concentration in urine after garlic consumption” value (Urine VIII) was 0.5 h and the “variation factor of the concentration maxima between test persons” value (Urine XIII-XVI, highest vs lowest maximum) was “up to 3.2”. For the same molecule, the “highest detected concentration of the sample series” value (“highest detected concentration” below) (Urine XIII) was 0.3 μg/mmol creatinine, the “highest detected concentration” value (Urine XIV (AMS: printed Urine UIV)) was 0.4 μg/mmol creatinine and the “highest detected concentration” value (Urine XV) was 1.0 μg/mmol creatinine. For the same molecule, the “time of highest concentration in urine after garlic consumption” value (Urine XVI) was 4 h, the “highest detected concentration” value (Urine XVI) was 0.3 μg/mmol creatinine and the “metabolite in urine related to creatinine” value (from here on “metabolite in urine related”) (urine set U XIX, 0.5 h post (0.50 h), garlic 3.1133 g) was 0.1. The “metabolite in urine related” value (urine set U XIX, 1 h post (1.00 h), garlic 3.1133 g) was 1.5, the “metabolite in urine related” value (urine set U XIX, 2 h post (2.00 h), garlic 3.1133 g) was 0.4 and the “metabolite in urine related” value (urine set U XIX, 4 h post (4.00 h), garlic 3.1133 g) was 0.2. The “metabolite in urine related” value (urine set U XIX, 6 h post (6.20 h), garlic 3.1133 g) was 0.1, the “metabolite in urine related” value (urine set U XIX, 8 h post (7.93 h), garlic 3.1133 g) was 0.1 and the “metabolite in urine related” value (urine set U XIX, 24 h post (23.98 h), garlic 3.1133 g) was 0.02. The “metabolite in urine related” value (urine set U XIX, pre (-0.07 h), garlic 3.1133 g) was “< LOD^1”, the “metabolite in urine related” value (urine set U XVII, 0.5 h post (0.58 h), garlic 3.1559 g) was 0.01 and the “metabolite in urine related” value (urine set U XVII, 1 h post (1.00 h), garlic 3.1559 g) was 0.1. For the same molecule, the “metabolite in urine related” value (urine set U XVII, 2 h post (2.17 h), garlic 3.1559 g) was 0.3, the “metabolite in urine related” value (urine set U XVII, 4 h post (4.00 h), garlic 3.1559 g) was 0.2 and the “metabolite in urine related” value (urine set U XVII, 6 h post (6.08 h), garlic 3.1559 g) was 0.02. The “metabolite in urine related” value (urine set U XVII, 8 h post (8.00 h), garlic 3.1559 g) was 0.02, the “metabolite in urine related” value (urine set U XVII, 24 h post (23.92 h), garlic 3.1559 g) was “traces^1” and the “metabolite in urine related” value (urine set U XVII, pre (-0.08 h), garlic 3.1559 g) was “traces^1”. The “metabolite in urine related” value (urine set U XVIII, 0.5 h post (0.63 h), garlic 3.1981 g) was 0.2, the “metabolite in urine related” value (urine set U XVIII, 1 h post (1.05 h), garlic 3.1981 g) was 0.3 and the “metabolite in urine related” value (urine set U XVIII, 2 h post (2.00 h), garlic 3.1981 g) was 0.6. The “metabolite in urine related” value (urine set U XVIII, 4 h post (3.97 h), garlic 3.1981 g) was 0.4, the “metabolite in urine related” value (urine set U XVIII, 6 h post (5.97 h), garlic 3.1981 g) was 0.1 and the “metabolite in urine related” value (urine set U XVIII, 8 h post (8.30 h), garlic 3.1981 g) was 0.4. The “metabolite in urine related” value (urine set U XVIII, 24 h post (24.13 h), garlic 3.1981 g) was “traces^1” and the “metabolite in urine related” value (urine set U XVIII, pre (-0.08 h), garlic 3.1981 g) was “< LOD^1”.
